Test: Phase 1 hepatic impairment study, safety (TEAEs) after single oral 20 mg tablet
[1] = mild hepatic impairment (N = 8)
[2] = moderate hepatic impairment (N = 8)
[3] = normal hepatic function (N = 14)

Description: The secondary objective of the study was to assess the safety and tolerability of a single dose of paltusotine in subjects with varying degrees of hepatic impairment.
Safety and tolerability were assessed by the following endpoints: reported adverse events (AEs), clinical laboratory test results (hematology, coagulation, serum chemistry, and urinalysis), vital sign measurements, and 12-lead electrocardiogram results
All 36 subjects who were enrolled in the study received all planned single doses of paltusotine 20 mg (1×20 mg tablet) and were included in the safety and PK analysis populations.

With N#Cc1cccc(-c2ccc3ncc(-c4cc(F)cc(F)c4)c(N4CCC(N)CC4)c3c2)c1O [paltusotine, 3-[4-(4-amino-1-piperidyl)-3-(3,5-difluorophenyl)-6-quinolyl]-2-hydroxybenzonitrile] the “discontinuation due to a TEAE” value (all 36 subjects) was “No subjects discontinued”, the safety and tolerability (hepatic impairment and normal subjects) was “safe and generally well tolerated” and the “Any SAEs, number of occurrences” value [1] was 1. For the same molecule, the “Any TEAE, number of occurrences” value [1] was 3, the “Related TEAE Abdominal discomfort, subjects n (%)” value [1] was 0 and the “Related TEAE Diarrhea, number of occurrences” value (“Related TEAE Diarrhea, number” for short) [1] was 1. For the same molecule, the “Related TEAE Diarrhea, subjects n (%)” value [1] was 1 (12.5%), the “Related TEAE Epigastric discomfort, subjects n (%)” value [1] was 0 and the “Related TEAE Fatigue, subjects n (%)” value [1] was 0. For the same molecule, the “Related TEAE Haematuria, number of occurrences” value [1] was 1, the “Related TEAE Haematuria, subjects n (%)” value [1] was 1 (12.5%) and the “Related TEAE Headache, subjects n (%)” value [1] was 0. For the same molecule, the “Related TEAE Neutropenia, subjects n (%)” value [1] was 0, the “Related TEAE Pain, subjects n (%)” value [1] was 0 and the “Related TEAE Paraesthesia, subjects n (%)” value [1] was 0. The “SAEs Not related to study drug (strongest relationship), subjects n (%)” value (“SAEs Not related to study drug … (%)” below) [1] was 1 (12.5%), the “SAEs Not related to study drug, number of occurrences” value [1] was 1 and the “SAEs Related to study drug (strongest relationship), subjects” value (from here on “SAEs Related to study drug”) [1] was 0. For the same molecule, the “Subjects reporting any SAEs, subjects n (%)” value [1] was 1 (12.5%), the “Subjects reporting any TEAE, subjects n (%)” value [1] was 2 (25.0%) and the “TEAE Abdominal discomfort, subjects n (%)” value [1] was 0. For the same molecule, the “TEAE COVID-19, subjects n (%)” value [1] was 0, the “TEAE Death, number of occurrences” value [1] was 1 and the “TEAE Diarrhea, number of occurrences” value [1] was 1. For the same molecule, the “TEAE Diarrhea, subjects n (%)” value [1] was 1 (12.5%), the “TEAE Epigastric discomfort, subjects n (%)” value [1] was 0 and the “TEAE Fatigue, subjects n (%)” value [1] was 0. The “TEAE Haematuria, number of occurrences” value [1] was 1, the “TEAE Haematuria, subjects n (%)” value [1] was 1 (12.5%) and the “TEAE Headache, subjects n (%)” value [1] was 0. The “TEAE Neutropenia, subjects n (%)” value [1] was 0, the “TEAE Pain, subjects n (%)” value [1] was 0 and the “TEAE Paraesthesia, subjects n (%)” value [1] was 0. The “TEAE SOC Blood and lymphatic system disorders, subjects n (%)” value [1] was 0, the “TEAE SOC Gastrointestinal disorders, number of occurrences” value [1] was 1 and the “TEAE SOC Gastrointestinal disorders, subjects n (%)” value [1] was 1 (12.5%). The “TEAE SOC General disorders and administration site conditions, number of occurrences” value [1] was 1, the “TEAE SOC General disorders and administration site conditions, subjects n (%)” value [1] was 1 (12.5%) and the “TEAE SOC Infections and infestations, subjects n (%)” value [1] was 0. The “TEAE SOC Nervous system disorders, subjects n (%)” value [1] was 0, the “TEAE SOC Renal and urinary disorders, number of occurrences” value [1] was 1 and the “TEAE SOC Renal and urinary disorders, subjects n (%)” value [1] was 1 (12.5%). The “TEAEs Not Related to study drug (strongest relationship), subjects n (%)” value [1] was 0, the “TEAEs Related to study drug (strongest relationship), subjects n (%)” value [1] was 2 (25.0%) and the “TEAEs Related to study drug, number of occurrences” value [1] was 2. The “TEAEs by maximum severity: Mild, number of occurrences” value [1] was 2, the “TEAEs by maximum severity: Mild, subjects n (%)” value [1] was 1 (12.5%) and the “TEAEs by maximum severity: Moderate, subjects n (%)” value [1] was 0. For the same molecule, the “TEAEs by maximum severity: Severe, number of occurrences” value [1] was 1, the “TEAEs by maximum severity: Severe, subjects n (%)” value [1] was 1 (12.5%) and the “Total number of SAEs reported” value [1] was 1. The “Total number of TEAEs reported” value [1] was 3, the “Any TEAE, number of occurrences” value [2] was 4 and the “Related TEAE Abdominal discomfort, subjects n (%)” value [2] was 0. For the same molecule, the “Related TEAE Diarrhea, number” value [2] was 1, the “Related TEAE Diarrhea, subjects n (%)” value [2] was 1 (12.5%) and the “Related TEAE Epigastric discomfort, subjects n (%)” value [2] was 0. The “Related TEAE Fatigue, number of occurrences” value [2] was 1, the “Related TEAE Fatigue, subjects n (%)” value [2] was 1 (12.5%) and the “Related TEAE Haematuria, subjects n (%)” value [2] was 0. For the same molecule, the “Related TEAE Headache, number of occurrences” value [2] was 1, the “Related TEAE Headache, subjects n (%)” value [2] was 1 (12.5%) and the “Related TEAE Neutropenia, subjects n (%)” value [2] was 0. For the same molecule, the “Related TEAE Pain, number of occurrences” value [2] was 1, the “Related TEAE Pain, subjects n (%)” value [2] was 1 (12.5%) and the “Related TEAE Paraesthesia, subjects n (%)” value [2] was 0. The “SAEs Not related to study drug … (%)” value [2] was 0, the “SAEs Related to study drug” value [2] was 0 and the “Subjects reporting any SAEs, subjects n (%)” value [2] was 0. For the same molecule, the “Subjects reporting any TEAE, subjects n (%)” value [2] was 2 (25.0%), the “TEAE Abdominal discomfort, subjects n (%)” value [2] was 0 and the “TEAE COVID-19, subjects n (%)” value [2] was 0. The “TEAE Death, subjects n (%)” value [2] was 0, the “TEAE Diarrhea, number of occurrences” value [2] was 1 and the “TEAE Diarrhea, subjects n (%)” value [2] was 1 (12.5%). The “TEAE Epigastric discomfort, subjects n (%)” value [2] was 0, the “TEAE Fatigue, number of occurrences” value [2] was 1 and the “TEAE Fatigue, subjects n (%)” value [2] was 1 (12.5%). For the same molecule, the “TEAE Haematuria, subjects n (%)” value [2] was 0, the “TEAE Headache, number of occurrences” value [2] was 1 and the “TEAE Headache, subjects n (%)” value [2] was 1 (12.5%). For the same molecule, the “TEAE Neutropenia, subjects n (%)” value [2] was 0, the “TEAE Pain, number of occurrences” value [2] was 1 and the “TEAE Pain, subjects n (%)” value [2] was 1 (12.5%). The “TEAE Paraesthesia, subjects n (%)” value [2] was 0, the “TEAE SOC Blood and lymphatic system disorders, subjects n (%)” value [2] was 0 and the “TEAE SOC Gastrointestinal disorders, number of occurrences” value [2] was 1. For the same molecule, the “TEAE SOC Gastrointestinal disorders, subjects n (%)” value [2] was 1 (12.5%), the “TEAE SOC General disorders and administration site conditions, number of occurrences” value [2] was 2 and the “TEAE SOC General disorders and administration site conditions, subjects n (%)” value [2] was 1 (12.5%). For the same molecule, the “TEAE SOC Infections and infestations, subjects n (%)” value [2] was 0, the “TEAE SOC Nervous system disorders, number of occurrences” value [2] was 1 and the “TEAE SOC Nervous system disorders, subjects n (%)” value [2] was 1 (12.5%). The “TEAE SOC Renal and urinary disorders, subjects n (%)” value [2] was 0, the “TEAEs Not Related to study drug (strongest relationship), subjects n (%)” value [2] was 0 and the “TEAEs Related to study drug (strongest relationship), subjects n (%)” value [2] was 2 (25.0%). For the same molecule, the “TEAEs Related to study drug, number of occurrences” value [2] was 4, the “TEAEs by maximum severity: Mild, number of occurrences” value [2] was 3 and the “TEAEs by maximum severity: Mild, subjects n (%)” value [2] was 1 (12.5%). For the same molecule, the “TEAEs by maximum severity: Moderate, number of occurrences” value [2] was 1, the “TEAEs by maximum severity: Moderate, subjects n (%)” value [2] was 1 (12.5%) and the “TEAEs by maximum severity: Severe, subjects n (%)” value [2] was 0. For the same molecule, the “Total number of SAEs reported” value [2] was 0, the “Total number of TEAEs reported” value [2] was 4 and the “Any TEAE, number of occurrences” value [3] was 6. For the same molecule, the “Related TEAE Abdominal discomfort, number of occurrences” value [3] was 1, the “Related TEAE Abdominal discomfort, subjects n (%)” value [3] was 1 (7.1%) and the “Related TEAE Diarrhea, number” value [3] was 2. The “Related TEAE Diarrhea, subjects n (%)” value [3] was 2 (14.3%), the “Related TEAE Epigastric discomfort, number of occurrences” value [3] was 1 and the “Related TEAE Epigastric discomfort, subjects n (%)” value [3] was 1 (7.1%). For the same molecule, the “Related TEAE Fatigue, subjects n (%)” value [3] was 0, the “Related TEAE Haematuria, subjects n (%)” value [3] was 0 and the “Related TEAE Headache, subjects n (%)” value [3] was 0. The “Related TEAE Neutropenia, subjects n (%)” value [3] was 0, the “Related TEAE Pain, subjects n (%)” value [3] was 0 and the “Related TEAE Paraesthesia, number of occurrences” value [3] was 1. For the same molecule, the “Related TEAE Paraesthesia, subjects n (%)” value [3] was 1 (7.1%), the “SAEs Not related to study drug … (%)” value [3] was 0 and the “SAEs Related to study drug” value [3] was 0. The “Subjects reporting any SAEs, subjects n (%)” value [3] was 0, the “Subjects reporting any TEAE, subjects n (%)” value [3] was 4 (28.6%) and the “TEAE Abdominal discomfort, number of occurrences” value [3] was 1. For the same molecule, the “TEAE Abdominal discomfort, subjects n (%)” value [3] was 1 (7.1%), the “TEAE COVID-19, subjects n (%)” value [3] was 0 and the “TEAE Death, subjects n (%)” value [3] was 0. For the same molecule, the “TEAE Diarrhea, number of occurrences” value [3] was 3, the “TEAE Diarrhea, subjects n (%)” value [3] was 3 (21.4%) and the “TEAE Epigastric discomfort, number of occurrences” value [3] was 1. The “TEAE Epigastric discomfort, subjects n (%)” value [3] was 1 (7.1%), the “TEAE Fatigue, subjects n (%)” value [3] was 0 and the “TEAE Haematuria, subjects n (%)” value [3] was 0. The “TEAE Headache, subjects n (%)” value [3] was 0, the “TEAE Neutropenia, subjects n (%)” value [3] was 0 and the “TEAE Pain, subjects n (%)” value [3] was 0. For the same molecule, the “TEAE Paraesthesia, number of occurrences” value [3] was 1, the “TEAE Paraesthesia, subjects n (%)” value [3] was 1 (7.1%) and the “TEAE SOC Blood and lymphatic system disorders, subjects n (%)” value [3] was 0.

Reference: patent US12208092B2, “Compositions and methods for administering paltusotine to patients with hepatic impairment” (CRINETICS PHARMACEUTICALS, INC., priority 2023, dated 2025)
